# Reference: a melting point compilation (Tetko et al.; mined from patent text by program, amines drawn as free bases though some values may be those of a salt)
row,SMILES,melting point [°C]
1,CC1(C(=O)C(N)=O)CC1(Cl)Cl (configuration not stated),92 to 93
2,Clc1ccn2ncc(Br)c2n1,173 to 174
3,Cc1cc(C)c2c(n1)CC(c1ccccc1)CC2=O (configuration not stated),97 to 99
4,CN(C)S(=O)(=O)c1ccc(Cl)c(-c2csc(=Nc3ccccc3)n2C)c1,195 to 197
5,OCCN(c1ccncc1F)n1ccc2ccccc21,133 to 135
6,CN1C2CCC1CC(c1n[nH]c3cc(F)ccc13)C2 (configuration not stated),235 to 236
7,CCOC(=O)C=CC=Cc1ccc(F)c([N+](=O)[O-])c1,106 to 107
8,Nc1nc(NCCN2CCOCC2)nc2nc(-c3ccco3)nn12,242 to 244
9,N#Cc1cnn2c(-c3cccc([N+](=O)[O-])c3)ccnc12,244 to 246
10,O=[N+]([O-])c1cc(-c2nsc(C(F)(F)F)c2Cl)c(Cl)cc1Cl,104 to 106
11,CC1(C#N)CCc2cc(O)c(C(C)(C)C)cc2O1 (configuration not stated),153 to 155
12,O=C1Nc2ccc(Br)cc2C2(CCCCC2)O1,208 to 210
13,CCOC(=O)C(=O)Nc1nc2c(OC)ccc(-c3ccccc3)c2s1,138 to 142
14,O=C(NCc1ccccc1)c1cc([N+](=O)[O-])ccc1N[C@H]1CC[C@H](O)CC1,233 to 234
15,NNc1ccc(C(=O)c2ccccc2)cc1[N+](=O)[O-],163 to 164
16,CCCc1c(OCCC2Cc3cc(CC(=O)O)ccc3O2)ccc(C(C)=O)c1O (configuration not stated),118 to 126
17,CC(C)(C)c1cc(C(c2ccccc2)c2cc(C(C)(C)C)cc(C(C)(C)C)c2O)c(O)c(C(C)(C)C)c1,165 to 167
18,O=C(NC1CCOc2cc(C(=O)O)ccc21)OCc1ccccc1 (configuration not stated),227 to 228
19,O=C(O)CCCc1cc2nc(C(F)(F)F)ccc2n1S(=O)(=O)c1cccc2ccccc12,195
20,CC(=O)NNc1nc(C(F)(F)F)nc(-c2ccc(S(C)(=O)=O)cc2)c1-c1ccccc1,265 to 268
21,COC(CNc1ccc(C(O)(C(F)(F)F)C(F)(F)F)cc1)OC,72 to 74
22,CCC(=O)N(Cc1cccc(-c2ccccc2)c1)c1cccc(-c2nnn[nH]2)c1,91
23,O=c1c2ccccc2nc(-c2ccccc2Cl)n1O,211
24,C#CCn1c(Br)c(C[C@H](NC(C)=O)C(=O)OC)c2c(Br)c(OC)c(Br)cc21,284 to 285
25,COc1ccc2oc3ccc(C=O)cc3c(=O)c2c1,167 to 169
26,C=CCOC1CC(C)(C)N(c2nc(Cl)nc(Cl)n2)C(C)(C)C1,53 to 55

row,SMILES,melting point [°C]
1,CC(C)c1cc(C=Cc2ccccc2O)on1,129 to 133
2,CC(=O)N(CC(C)C)C1NC(=O)N(c2ccc(C)cc2)C(=O)N1,159 to 160
3,CCCCCCC1CCC(O)C(=O)O1 (configuration not stated),75.5 to 77
4,CCOC(C#N)c1ccc2ccccc2c1 (configuration not stated),53 to 54
5,O=C(Oc1cccc2ccccc12)c1ccc(CCl)cc1,93 to 96
6,COc1ccc(CC(=O)O)c(C(=O)c2ccccc2)c1,158 to 159
7,O=C(NC(=O)c1c(Cl)cccc1Cl)Nc1ccc(C(F)(F)F)cn1,228 to 230
8,CCC(=C1SCCCS1)c1ccc(Oc2ccccc2)cc1,53 to 54
9,CNc1nc(N)ncc1-c1cccc(Cl)c1Cl,233 to 237
10,CCOC(=O)c1cc2ccccc2n1-c1ccc(OC)c(OC)c1,126 to 128
11,CCCCCCn1c(=O)c(=O)[nH]c2c3ccccc3ccc21,196
12,N#CC(C(=O)c1cccnc1)c1ccccc1 (configuration not stated),148 to 149
13,O=C1Cn2c(c(Cl)c3ccccc32)-c2ccccc2N1,287 to 289
14,COC(=O)CCc1cnoc1-c1ccc(F)cc1F,40 to 41
15,CCOC(=O)C(=O)Nc1c([N+](=O)[O-])sc2ccc(Br)cc12,157 to 160
16,O=S(=O)(c1ccccc1)c1ccc2c(c1)O[C@H](CO)CO2,112 to 114
17,O=C(Nc1ccc(OCCCN2CCNCC2)c2ccccc12)c1cc(F)cc(N2CCCCC2)c1,70 to 72
18,N#CC[C@H]1CCn2c(cc3ccccc32)C1,100 to 101
19,CCOP(=O)(CNC(CCCc1ccccc1)c1cc(C(C)(C)C)c(O)c(C(C)(C)C)c1)OCC (configuration not stated),93 to 94
20,CC(C)c1cc(C(C)C)c(CC(=O)NS(=O)(=O)Oc2c(C(C)C)cc(C#N)cc2C(C)C)c(C(C)C)c1,79 to 84
21,Cc1ccc(C2CCCN2S(=O)(=O)c2ccc(F)cc2)c(C)c1 (racemic),134
22,O=CN(O)C(CS(=O)(=O)c1ccc(-c2ccc(C(F)(F)F)cc2)cc1)c1ccccn1 (configuration not stated),168 to 169
23,Cc1cc(C)c2nc(C3CC3)n(Cc3ccc(C(CC(=O)O)c4ccccc4)cc3)c2n1 (configuration not stated),189 to 190
24,CC(C)(C)C(=O)Oc1ccccc1C(=O)c1ccccc1OC(=O)C(C)(C)C,106 to 108
25,O=[N+]([O-])c1cc2cc(Cl)ccc2nc1Cl,190
26,CNc1ccc2cnc(S(C)=O)nc2n1 (configuration not stated),185
